Data set [1] addresses T1, PD-L1 protein (Homo sapiens (Human), UniProt Q9NZQ7). The experiment in a line: Relieving the inhibition of IFNγ by ligand PD-L1 in human PBMC. Format: cell-based. The following applies: 72 h. The procedure: The expression level of IFNγ can reflect the proliferative activity of T lymphocytes. Using the extracted human PBMC (peripheral blood mononuclear cell), on the basis that T lymphocyte could be activated by the anti-CD3/anti-CD28 antibody, the ligand PD-L1 was added to the inhibit T lymphocyte, the example compounds' capacity of relieving the inhibition by the PD-L1 was investigated.
The specific procedure is as follows. DAKEWE human lymphocyte separation solution (DKW-KLSH-0100) was used to extract PBMC from human whole blood, and PBMC was inoculated into 96 well plate, with 3×10^5 cells per well. […] After 72 h, the expression level of IFNγ in the supernatant was detected by Cisbio IFNγ test kit.

Data set [2] deals with high metastatic melanoma B16F10. As to the kind of experiment: Lung metastasis model of high metastatic melanoma B16F10. Format: in vivo, C57BL/6 mice. The following applies: result in words. The protocol:
The method in B16F10 lung metastasis model was as follows. The cultured B16F10 tumor cells were digested and centrifuged and washed for two times with sterile physiological saline and then counted. And the cell concentration was adjusted to 2.5×10^6/ml by physiological saline. 0.2 ml of cells were injected into the C57BL/6 mice through the tail vein, and the tumor cells will gather in the lung of the mice. After inoculation, the animals were randomly divided into two groups in next day. Each group had 6-7 mice. After weighing, the animals were dosed once each day. After 3 weeks, the mice were weighed and killed, the lung tissue was collected and weighed, and the number of lung tumors was counted after being fixed by the Bouin's Fluid. Finally, the tumor growth inhibition rate was calculated, and the tumor growth inhibition rate was used to evaluate the level of anti-tumor effect.
In the study of the mechanism of the above models, the method of flow cytometry was adopted in measuring the total cell proportion of T cells of various types. The specific steps were as follows. The samples were treated at first. For blood tissue, the orbital blood was taken. The red cell lysate was used to remove the red blood cells, and then the PBS buffer was used for wash. After being washed, the cells were collected. For the tumor and spleen, the tissues were grinded with a homogenizer, and then diluted with PBS buffer, then filtered by 300 meshes of screen. After the number of cells was counted for each sample, 1×10^6 cells were added into EP tube and stained for flow antibody. After incubation for 1 h on ice, each sample was washed 2 times with PBS buffer. The cell population was analyzed by VERSE flow instrument of BD Company. The total number of cells in tumor tissue was 1×10^5 and the total number of cells in blood and spleen tissues was 1×10^4. The ratio of T cells to total number of cells was analyzed after flow cytometry.

In a further data set the test system is mouse colon cancer MC38. The experiment in a line: Subcutaneous xenograft model of mouse colon cancer MC38. Type of data set: in vivo, C57BL/6 or Bablc mice. The protocol: The method in subcutaneous xenograft tumor was as follows. The cultured specific tumor cells were digested and collected by centrifugation, and washed with sterile physiological saline for two times and then counted. The cell concentration was adjusted to 5×10^6/ml by physiological saline, and 0.2 ml of cell suspension was inoculated to the right armpit of C57BL/6 or Bablc mice. After inoculation, the animals were randomly divided into two groups in next day. Each group had 6-7 mice. After weighing, the animals were dosed once each day to monitor tumor size. When the tumor size reached to a certain size, the mice was weighed and blood was collected from mice orbit and then the mice were killed by removing the neck. The tumor tissue, thymus tissue and spleen tissue were collected and weighed respectively. Finally, the tumor growth inhibition rate was calculated, and the tumor growth inhibition rate was used to evaluate the level of anti-tumor effect.

Data set [3] concerns the target T1, PD-L1 protein. As to the kind of experiment: Interaction with PD-L1 protein tested by Biacore (SPR). Format: binding. An excerpt: Surface plasmon is a kind of electromagnetic wave on the surface of metal, produced by the interaction of photon and electron in free vibration. Surface plasmon resonance (SPR) is an optical phenomenon that occurs on the surface of two kinds of media, which can be induced by photon or electron. The phenomenon of total reflection of light from light dense medium into light scattering medium will form evanescent wave into light scattering medium. When the total reflected evanescent wave meets the plasma wave on the metal surface, the resonance may occur, and the energy of reflected light decreases and the resonance peak appears on the reflected light energy spectrum. This resonance is called the surface plasmon resonance. The incident angle of the surface plasmon resonance is called the SPR angle. The SPR biosensor provides a sensitive, real-time, non-label detection technique for monitoring the interaction of molecules. The sensor detects the change of the SPR angle, and SPR is also related to the refractive index of the metal surface. When an analyte is bond on the surface of the chip, it leads to the change of the refractive index of the chip surface, which leads to the change of the SPR angle. […] In the interaction analysis, the change of SPR angle is recorded on the sensor map in real time. […]
(Surface plasmon resonance follows binding to a sensor surface in real time, without labels.)

T1 sequence (Q9NZQ7 19-290): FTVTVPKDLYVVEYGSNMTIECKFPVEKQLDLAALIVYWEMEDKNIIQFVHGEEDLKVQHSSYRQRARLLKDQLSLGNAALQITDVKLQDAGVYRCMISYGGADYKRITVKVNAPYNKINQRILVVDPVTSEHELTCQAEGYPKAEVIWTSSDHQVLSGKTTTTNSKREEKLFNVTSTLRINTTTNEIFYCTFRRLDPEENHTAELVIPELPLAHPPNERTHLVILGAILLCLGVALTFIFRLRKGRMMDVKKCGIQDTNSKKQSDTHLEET

By IC50 is commonly meant the point on the concentration scale where inhibition reaches its midpoint. For orientation: Kd means the concentration at which binding is half-saturated. The molecule `O=C(O)[C@H](CO)NCc1cc(Cl)c(OCc2cccc(-c3ccccc3)c2Br)cc1OCc1cccnc1` [Example 4, (S)—N-(4-(2-bromo-3-phenylbenzyloxy)-5-chloro-2-(pyridin-3-yl-methyleneoxy)benzyl) serine] displayed an IC50 on PD-L1 protein [1] of 180 pM. The “relief of the inhibition of PD-L1 to expression level of IFNγ” value on PD-L1 protein [1] (at 10 nM) is listed as “partially relieved”. In addition, the “percentage of lymphocyte in mouse blood” value in data set [2] is “increase”. For the same molecule, the “TGI % (tumor growth inhibition rate)” value in the data set with mouse colon cancer MC38 (2.5 mg/kg) turned out to be 102.3%; with mouse colon cancer MC38 (5 mg/kg), 12.7%; in the data set with mouse colon cancer MC38 (10 mg/kg) it was 32.7%; with mouse colon cancer MC38 (20 mg/kg) it was 41.2%. The “Tumor weight(g) Mean ± SD” value came out at 3.25 ± 0.61 g in the data set on mouse colon cancer MC38 (2.5 mg/kg), 2.78 ± 0.44 g in the data set on mouse colon cancer MC38 (5 mg/kg), 2.14 ± 0.78 g in the data set on mouse colon cancer MC38 (10 mg/kg) and 1.87 ± 0.90 g with mouse colon cancer MC38 (20 mg/kg). Also, the “Body weight (g) Mean ± SD Begin” value in the data set with mouse colon cancer MC38 (2.5 mg/kg, begin) amounted to 18.0 ± 0.4 g. Besides, the “Body weight (g) Mean ± SD End” value with mouse colon cancer MC38 (2.5 mg/kg) stood at 21.9 ± 0.7 g; in the data set with mouse colon cancer MC38 (5 mg/kg), 22.8 ± 0.6 g; in the data set with mouse colon cancer MC38 (10 mg/kg) it was 21.5 ± 0.8 g; with mouse colon cancer MC38 (20 mg/kg) it was 20.9 ± 1.1 g. Also, on PD-L1 protein [3] (PBS-P+, pH7.4, 0.01% DMSO, NTA chip), the “kd” value came to 2.815e-05 s⁻¹. Besides, on PD-L1 protein [3] (unit inferred, read-out: affinity kD value), the Kd worked out at 20.3 pM.

Values taken from patent publication US10975049B2, “Nicotinyl alcohol ether derivative, preparation method therefor, and pharmaceutical composition and uses thereof” (Institute of Materia Medica, Chinese Academy of Medical …, priority 2016, dated 2021).
